This note sets out measurements from PubChem BioAssay (NCI).

Test in all cases: NCI anticancer screen, dose series, 48 h
Assay [1] deals with HCT-15 colon.
Assay [2] deals with M14 melanoma.
Assay [3] concerns OVCAR-4 ovarian.
In assay [4] the test system is PC-3 prostate.
For assay [5], the system named is RXF 393 renal.
The test system of assay [6] is SK-MEL-28 melanoma.
Assay [7] has as its system SW-620 colon.
Assay [8] has as its system TK-10 renal.
Assay [9] concerns UACC-62 melanoma.
Assay [10] concerns HOP-92 NSCLC.

SMILES strings stand for the structures.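 The compound was tested at five concentrations on cells cultured in 96-well plates, with a 48-hour exposure period. Here, GI50 denotes the concentration required for 50% inhibition of growth. TGI: concentration producing complete growth inhibition.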

Consider `O=c1c(-c2ccc(O)cc2)coc2cc(OC3OC(CO)C(O)C(O)C3O)cc(O)c12` (stereo not drawn), for which the TGI in [1], in assay [2], in [3], in [4], in [5] and in assay [6] was above 100 µM throughout. In addition, the figures for the TGI in assay [7], in assay [8] and in assay [9] were above 10 µM, above 100 µM and above 100 µM, respectively. Further, the GI50 was above 100 µM in [2]; above 100 µM in [3]; above 10 µM in [5]; above 100 µM in assay [6]; above 10 µM in assay [9].

Take `COc1ccc2c(c1)C(=O)c1c-2n(CCCN)c(=O)c2cc(OC)c(OC)cc12`: the GI50 in assay [1] was 0.229 µM; in assay [10] it was 0.424 µM; in assay [4], 0.205 µM; in assay [5], 0.399 µM; in [6], 8.19 µM; in assay [7], 0.0554 µM. For the same molecule, the GI50 in assay [8] was 1.45 µM; in [9], 0.299 µM. For the same molecule, the TGI in [1] amounted to 1.18 µM; in [10], 2.34 µM; in assay [4], 1.27 µM; in assay [5] it was 1.88 µM; in [6], 29.1 µM; in [7] it was 1.98 µM. In addition, the TGI stood at 2.99 µM in assay [8] and 1.93 µM in assay [9].

For the molecule `C=C1NC(=O)C(CC(C(=O)C(=O)Nc2c(C)cccc2C(C)(C)C)C(=O)c2ccc3ccccc3c2)C(=O)N1` (stereo not drawn), the TGI in [1], in [10], in [2], in assay [3], in assay [4] and in assay [5] was above 100 µM throughout. Further, the TGI in [6], in assay [7] and in assay [9] was above 100 µM in each case.

In the case of `C[C@@H]1CC[C@@H]2[C@@H](C)C[C@H]3[C@@H]4C(C)(C)OC(=O)[C@]4(C)C(=O)[C@@]23C1=O`, the GI50 was 16.4 µM in assay [1], above 100 µM in assay [4], above 100 µM in assay [5] and 70 µM in assay [9]. Besides, the TGI in [1], in assay [2], in assay [3], in assay [4], in assay [5] and in assay [6] was above 100 µM each time. Further, the TGI in [7], in assay [8] and in assay [9] was above 100 µM in each case.

Consider `CO[C@@H]1[C@H]2[C@@H](C)c3ccoc3C[C@@H]2[C@@]2(C)CC[C@H](OC(=O)c3ccccc3)[C@](C)(C(=O)O)[C@]2(O)[C@@H]1OC(=O)c1ccccc1`, for which the GI50 in [1] was 7.93 µM; in [2], 8.53 µM; in [3], 22.1 µM; in assay [4], 16.4 µM; in assay [5], 12.2 µM; in [6] it was 14.5 µM. In addition, the GI50 in [7] was 9.3 µM; in [8] it was 14.3 µM; in assay [9], 7.12 µM. Also, the TGI in [1] is 16.3 µM; in assay [2], 24.4 µM; in [3], above 50 µM; in [4] it was above 50 µM; in assay [5] it was 39 µM; in assay [6], above 50 µM. The TGI in [7] is 20 µM; in assay [8] it was above 50 µM; in assay [9], 13.6 µM.

For the molecule `COC(=O)C(=O)C(C(=O)C(=O)Nc1ccc(C)cc1)c1nc2ccc(C(=O)c3ccccc3)cc2[nH]c1=O` (stereo not drawn), the TGI in assay [1], in [10], in assay [3], in [4], in assay [5] and in assay [6] was above 100 µM each time. The TGI in [7], in assay [8] and in [9] was above 100 µM throughout.

For `COC(=O)C1=C(C(=O)OC)C2OC1c1cc3ccccc3cc12`, the TGI in assay [1] was found to be 8.09 µM; in [10], 6.34 µM; in assay [2] it was 4.83 µM; in [4], 32.2 µM; in [5], 3.29 µM; in assay [6] it was 4.09 µM. For the same molecule, the values for the TGI in [7], in assay [8] and in [9] were 3.96 µM, 11.3 µM and 27.9 µM, respectively.

Consider `N#Cc1c(N)nc(N2CCSCC2)c(C#N)c1-c1ccc(O)cc1`, for which the GI50 in assay [1] was 17.6 µM; in [10], 10.1 µM; in assay [3], 18 µM; in assay [4], 19.8 µM; in assay [5], 35.3 µM; in [6] it was 15.5 µM. Besides, the GI50 was 27.5 µM in [7], 30.4 µM in [8] and 13 µM in assay [9]. For the same molecule, the TGI is 54.1 µM in [1]; 47.5 µM in [10]; 67.6 µM in assay [3]; above 100 µM in assay [4]; above 100 µM in [5]; 35 µM in assay [6]. The TGI in assay [7] is above 100 µM; in [8], above 100 µM; in [9] it was 26.2 µM.

As for `CCN(CC)CC(C)(C)C(=O)/C=C/c1ccc(/C=C/C(=O)C(C)(C)CN(CC)CC)cc1`, the TGI in assay [1] worked out at 0.901 µM; in [10], 1.46 µM; in assay [2], 2.46 µM; in assay [4], 1.51 µM; in [5], 0.928 µM; in [6], 2.28 µM. Besides, the results for the TGI in assay [7], in [8] and in assay [9] were 0.523 µM, 2.49 µM and 4.89 µM, respectively.

With `O=C(Nc1nc(-c2ccc(Cl)cc2)nc2c1sc(=S)n2-c1ccccc1)C(F)(F)F`, the GI50 is 6.46 µM in assay [1]; 2.35 µM in [10]; 7.61 µM in assay [2]; 1.95 µM in [3]; 8.95 µM in assay [4]; 2.36 µM in [5]. The GI50 was 6.01 µM in [6], 4.34 µM in assay [7] and 3.55 µM in assay [9]. Also, the TGI in assay [1] was above 100 µM; in [10], 6.08 µM; in assay [2], above 100 µM; in assay [3], 4.19 µM; in [4], 71.4 µM; in assay [5], 5.01 µM. Further, the TGI in assay [6] is above 100 µM; in [7], 26.3 µM; in assay [9], 15 µM.
